Read-outs that look alike come from different tables or passages of the source.
Legend:
β-catenin/Tcf4 PPI [1] = molecular target: T1, β-catenin/Tcf4 PPI (Homo sapiens, UniProt P35222); details: Table 3, known inhibitors, footnotes a, b; read-out: Ki + SD FP; cited from earlier work
T1 sequence (P35222 138-686): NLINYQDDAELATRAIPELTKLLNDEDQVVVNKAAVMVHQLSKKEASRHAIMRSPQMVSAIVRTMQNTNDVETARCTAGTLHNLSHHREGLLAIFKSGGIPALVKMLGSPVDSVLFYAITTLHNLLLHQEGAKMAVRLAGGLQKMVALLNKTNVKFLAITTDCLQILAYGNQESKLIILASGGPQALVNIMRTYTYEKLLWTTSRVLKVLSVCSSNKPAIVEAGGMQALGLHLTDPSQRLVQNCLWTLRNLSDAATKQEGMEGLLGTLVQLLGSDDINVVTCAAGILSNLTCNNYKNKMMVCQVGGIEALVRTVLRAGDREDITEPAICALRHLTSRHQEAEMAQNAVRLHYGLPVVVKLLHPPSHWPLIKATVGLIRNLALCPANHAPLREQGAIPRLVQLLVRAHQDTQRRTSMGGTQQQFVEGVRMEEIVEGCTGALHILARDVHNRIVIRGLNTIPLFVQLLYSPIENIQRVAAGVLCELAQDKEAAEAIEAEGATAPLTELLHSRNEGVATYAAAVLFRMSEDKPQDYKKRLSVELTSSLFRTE

β-catenin/APC-R3 = molecular target: T2, β-catenin/APC-R3 (Homo sapiens, UniProt P35222); details: FP selectivity assay, known inhibitors, footnotes a, b; read-out: Ki ± SD β-catenin/APC-R3; cited from earlier work
T2 construct: Wild-type β-catenin and its mutants (residues 138-686) were cloned; 6xHis; made in house; host or cells: E. coli BL21 DE3
T2 sequence (P35222 138-686): T1 sequence (P35222 138-686)

β-catenin/Tcf4 = molecular target: T3, β-catenin/Tcf4 (Homo sapiens, UniProt P35222); details: FP selectivity assay, known inhibitors, footnotes a, b; read-out: Ki ± SD β-catenin/Tcf4; cited from earlier work
T3 sequence (P35222 138-686): T1 sequence (P35222 138-686)

β-catenin/E-cadherin = molecular target: T4, β-catenin/E-cadherin (Homo sapiens, UniProt P35222); details: FP selectivity assay, known inhibitors, footnotes a, b; read-out: Ki ± SD β-catenin/E-cadherin; cited from earlier work
T4 construct: Wild-type β-catenin and its mutants (residues 138-686) were cloned; 6xHis; made in house; host or cells: E. coli BL21 DE3
T4 sequence (P35222 138-686): T1 sequence (P35222 138-686)

[2] = system: canonical Wnt signaling in colorectal cancer SW480 cells; test: TOPFlash luciferase reporter assay, SW480; assay type: cell-based; details: Homo sapiens, SW480, 24 h, read-out: TOPFlash IC50 ± SD SW480
Experimental: (§1) FuGENE 6 (E2962, Promega) in a 96-well plate format was used for the transfection of HEK293 and SW480 cells according to the manufacturer's instructions. […] SW480 cells were co-transfected with 60 ng of the TOPFlash or FOPFlash reporter gene and 40 ng pCMV-RL normalization reporter. Cells were cultured in DMEM and 10% fatal bovine serum at 37° C. for 24 h, and different concentrations of inhibitors were then added. After 24 h, the luciferase reporter activity was measured using the Dual-Glo system (E2940, Promega). Normalized luciferase activity in response to the treatment with the inhibitors was compared with that obtained from the cells treated with DMSO. Experiments were performed in triplicate.

SW480 cells = test: MTs cell viability assay, SW480; assay type: cell-based, human; details: Homo sapiens, SW480; MTs cell viability, 72 h; read-out: IC50 ± SD SW480
Experimental: (§2) Colorectal cancer cell lines, SW480, HT29, an HCT116, and human normal cell line HEK293 were seeded in 96-well plates at 4×10^3 cells/well, maintained overnight at 37° C., and incubated with the tested compounds at various concentrations. Cell viability was monitored after 72 h using a freshly prepared mixture of 1 part phenazine methosulfate (PMS, Sigma) solution (0.92 mg/mL) and 19 parts 3-(4,5-dimethylthiazol-2-yl)-5-(3-carboxymethoxyphenyl)-2-(4-sulfophenyl)-2H-tetrazolium (MTs, Promega) solution (2 mg/mL). Cells were incubated in 10 μL of this solution at 37° C. for 3 h, and A490 was measured. […] Experiments were performed in triplicate.

HCT116 cells = test: MTs cell viability assay, HCT116; assay type: cell-based, human; details: Homo sapiens, HCT-116; MTs cell viability, 72 h; read-out: IC50 ± SD HCT116
Experimental: as §2

HT29 cells = test: MTs cell viability assay, HT29; assay type: cell-based; details: Homo sapiens, HT-29, 72 h, read-out: IC50 ± SD HT29
Experimental: as §2

[3] = system: FOPFlash luciferase (reporter with eight mutant Tcf binding sites); assay type: cell-based, human
Experimental: as §1

[4] = system: Wnt/β-catenin target genes in SW480 cells
Experimental: Total RNAs were extracted with TRIzol (Ser. […] The threshold cycle (CT) values were normalized to that of internal reference GAPDH. The primer pairs for human GAPDH were forward: [NT] and reverse: [NT]; for human HPRT forward: [NT] and reverse: [NT]; for human AXIN2 forward: [NT] and reverse: [NT]; for human c-myc forward: [NT] and reverse: [NT]; and for human cyclin D1 forward: [NT] and reverse: [NT]. Experiments were performed in triplicate.

[5] = molecular target: T5, β-catenin/Tcf PPI in SW480 cells (Homo sapiens, UniProt P35222); test: Coimmunoprecipitation assay; assay type: cell-based; details: SW480, 24 h
T5 construct: endogenous in cells; host or cells: SW480
T5 sequence (P35222 2-781 limits assumed): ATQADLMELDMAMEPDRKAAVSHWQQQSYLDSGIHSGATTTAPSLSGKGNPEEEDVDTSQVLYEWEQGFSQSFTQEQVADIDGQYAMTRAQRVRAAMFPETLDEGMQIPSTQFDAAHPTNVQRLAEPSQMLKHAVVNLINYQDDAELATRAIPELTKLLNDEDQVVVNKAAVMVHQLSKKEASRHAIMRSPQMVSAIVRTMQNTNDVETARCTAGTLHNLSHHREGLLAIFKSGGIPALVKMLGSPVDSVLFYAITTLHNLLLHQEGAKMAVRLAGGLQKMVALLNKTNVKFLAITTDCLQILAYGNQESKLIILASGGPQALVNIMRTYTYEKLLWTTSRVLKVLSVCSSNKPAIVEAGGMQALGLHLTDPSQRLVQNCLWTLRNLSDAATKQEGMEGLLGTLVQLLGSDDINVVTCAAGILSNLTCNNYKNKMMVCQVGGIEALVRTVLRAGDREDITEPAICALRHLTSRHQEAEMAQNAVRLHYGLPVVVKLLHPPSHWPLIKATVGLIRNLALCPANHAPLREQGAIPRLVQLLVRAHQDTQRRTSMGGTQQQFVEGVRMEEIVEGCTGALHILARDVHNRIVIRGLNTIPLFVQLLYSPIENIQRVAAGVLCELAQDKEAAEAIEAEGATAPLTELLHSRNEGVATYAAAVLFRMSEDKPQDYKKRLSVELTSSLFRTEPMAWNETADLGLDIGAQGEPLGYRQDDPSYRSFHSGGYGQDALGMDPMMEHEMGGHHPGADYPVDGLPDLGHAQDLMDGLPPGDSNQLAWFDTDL
Experimental: SW480 cells at 1×10^6/mL were treated with different concentrations of 18 for 24 h. Cells were lysed in buffer containing 50 mM Tris, pH 7.4, 150 mM NaCl, 1% Nonidet P-40, 2 mM EDTA, and protease inhibitors. The lysates were preabsorbed to A/G plus agarose (sc-2003, Santa Cruz Biotechnology, Inc.) at 4° C. for 1 h. Preadsorbed lysates were incubated with a specific primary antibody overnight at 4° C. A/G plus agarose was then added to the lysates mixture and incubated for 3 h. The beads were washed 5 times with the lysis buffer at 4° C. The bound protein was eluted by boiling in the SDS sample buffer and loaded onto 8% SDS polyacrylamide gel for electrophoretic analysis. Separated proteins were transferred onto nitrocellulose membranes for immunoblot analysis. The primary antibodies were against fl-catenin (610153, BD Biosciences) and Tcf4 (05-511, Millipore). IRDye 680LT goat anti-mouse IgG (827-11080, LiCOR) was used as the secondary antibody. The images were detected by the Odyssey Infrared Imaging System (LiCOR). Experiments were performed in duplicate.

[6] = system: cyclin D1, c-myc and β-catenin protein expression in SW480 cells; test: Western blot analysis; assay type: cell-based, human; details: SW480, 24 h
Experimental: SW480 cells at 1×10^6 cells/mL were treated with different concentrations of 18 for 24 h. Cell were lysed in a buffer containing 50 mM Tris (pH 7.4), 150 mM NaCl, 1% Nonidet P-40, 0.5% sodium deoxycholate, 0.1% SDS, and protease inhibitors. After centrifugation at 12,000 rpm for 20 min at 4° C., the supernatant was loaded onto an 8% SDS polyacrylamide gel for electrophoretic analysis. Separated proteins were transferred onto nitrocellulose membranes for immunoblot analysis. The antibodies against c-myc (D84C12, Cell Signaling), cyclin D1 (sc-853, Santa Cruz Biotechnology, Inc.), and β-tubulin (sc-55529, Santa Cruz Biotechnology, Inc) were used. IRDye 680LT goat anti-mouse IgG (827-11080, LiCOR) or IRDye 800CW goat anti-rabbit IgG (827-08365, LiCOR) was used as the secondary antibody. The images were detected by the Odyssey Infrared Imaging System (LiCOR). The Western blot bands were quantified by LI-COR Image Studio Lite 4.0. Experiments were performed in duplicate.

β-catenin/Tcf4 PPI [7] = molecular target: T1, β-catenin/Tcf4 PPI; test: biochemical
Description: (§3) After β-catenin and fluorescein-Tcf4 form a protein-protein complex, the fluorophore is attached to a high-molecular-weight protein complex (≥60 kDa) and has a low rotational speed when it is excited by plane-polarized light. […] When an inhibitor completely disrupts the β-catenin/fluorescein-Tcf4 PPI, the fluorophore is only attached to Tcf4 (≤6 kDa), and the emitted light after excitation will be largely depolarized due to a high rotational speed of the fluorophore. AlphaScreen is a bead-based assay. […] On laser excitation at 680 nm, the photo sensitizers inside the donor beads convert ambient oxygen to a singlet oxygen state. Only when the donor and acceptor beads are brought within 200 nm can the singlet oxygen molecules diffuse to the acceptor beads, resulting in extensive emission at 570 nm.

β-catenin/Tcf4 PPI [8] = molecular target: T1, β-catenin/Tcf4 PPI; details: read-out: Ki ± SD FP; Table 8, resynthesized 18 and derivatives
Description: as §3

## COC1=C(CC(C)OC(=O)Oc2ccc(O)cc2)C2c3c(c(O)cc(OC)c3-c3c(OC)cc(O)c4c3C2C(CC(C)OC(=O)c2ccccc2)=C(OC)C4=O)C1=O (stereo not drawn) [Compound 1]
β-catenin/Tcf4 PPI [1]
  Ki: 18 ± 2.1 µM
β-catenin/APC-R3
  Ki: 110 ± 0.58 µM
β-catenin/Tcf4
  Ki: 77 ± 9.3 µM
β-catenin/E-cadherin
  Ki: 38 ± 1.6 µM

## COc1ccc(/C=C2\SC(=S)N(CCCC(=O)O)C2=O)cc1OC [Compound 9, reference compound]
[2]
  IC50: 4 ± 0.39 µM
SW480 cells
  IC50: 240 ± 2.5 µM
HCT116 cells
  IC50: 180 ± 2.9 µM
HT29 cells
  IC50: 290 ± 2.4 µM
[3]; reference inhibitors
  FOPFlash luciferase reporter activity: inhibited

## Nc1nonc1C(=O)N/N=C1/c2ccccc2-c2nc3nonc3nc21 [Compound 18, (Z)-4-Amino-N′-(9H-Indeno[1,2-B][1,2,5]Oxadiazolo[3,4-E]Pyrazin-9-ylidene)-1,2,5-Oxadiazole-3-Carbohydrazide]
[4]; AXIN2, cyclin D1, c-myc, dose of 2 μM, SW480, 24 h
  mRNA expression inhibited: More than 50%
[4]; SW480
  expression of house-keeping gene HPRT: did not affect
[4]; SW480, dose-dependent
  expression of AXIN2, cyclin D1, and c-myc (mRNA): down-regulated
[5]
  β-catenin/Tcf PPI in a cellular context: inhibits the β-catenin/Tcf PPI in a dose-dependent manner
[3]; HEK293 and SW480 (FIG. 7), off-target effects
  concentrations at which FOPFlash luciferase activity was inhibited: ≥ 5 µM
[6]
  expression level of β-catenin: did not reduce
  expression of proteins cyclin D1 and c-myc: significantly reduced

## N#CCn1c2ccccc2c2nc3nonc3nc21 [Compound 34, 2-(5H-[1,2,5]Oxadiazolo[3′,4′:5,6]Pyrazino[2,3-B]Indol-5-yl)Acetonitrile]
β-catenin/Tcf4 PPI [7]
  Ki: > 130 µM
β-catenin/Tcf4 PPI [8]
  Ki: 240 ± 14 µM

Reference: US10273246B2, “Methods and compositions of substituted 5H-[1,2,5] oxadiazolo [3′,4′:5,6] pyrazino[2,3-B] indole analogs as inhibitors of β-catenin/T-cell factor protein-protein interactions” (University of Utah Research Foundation, priority 2015, dated 2019)
